Target: T1, GCS (Canis lupus familiaris, UniProt A0A8I3MXG6)
T1 construct: endogenous in cells; host or cells: MDCK (Madin-Darby canine kidney) cells, whole-cell lysate
T1 sequence (A0A8I3MXG6 1-394): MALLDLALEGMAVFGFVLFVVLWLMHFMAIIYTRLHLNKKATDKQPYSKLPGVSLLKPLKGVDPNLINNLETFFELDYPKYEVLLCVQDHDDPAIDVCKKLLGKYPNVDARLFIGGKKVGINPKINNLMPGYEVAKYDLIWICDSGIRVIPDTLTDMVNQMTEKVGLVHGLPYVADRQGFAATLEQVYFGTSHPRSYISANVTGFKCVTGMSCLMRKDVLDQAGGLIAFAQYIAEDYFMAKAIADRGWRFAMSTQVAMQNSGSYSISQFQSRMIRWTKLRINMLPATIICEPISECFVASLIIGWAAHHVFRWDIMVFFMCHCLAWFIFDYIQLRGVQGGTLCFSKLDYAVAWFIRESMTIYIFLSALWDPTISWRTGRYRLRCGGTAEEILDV
Test: GCS enzymatic assay (MDCK cell lysate, NBD-ceramide to glucosylceramide, LC/MS)
Type: biochemical, canine
Conditions: Table 2, the table does not say which of the assays; for Data Range (% inhibition): class symbols D, E, F, NA (not active)
How it was run: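 IC50 or percent inhibition came from LC/MS/MS (ESI+, MRM) of NBD-ceramide and glucosylceramide, with tolbutamide as internal standard. The reaction used MDCK (canine) cell lysate as the enzyme source and was ended with acetonitrile. Mock wells received 0.1% DMSO.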

SMILES | Data Range (% inhibition) | IC50 (class symbols A, B, C, read-out: Data Range (IC50 values)) [nM]
O=C(N[C@H](CN1CCCC1)[C@H](O)c1ccc2c(c1)OCCO2)C1CCN(c2nc3c(s2)CCCC3)C1 (stereo partly drawn) [Compound 36F, N-((1R,2R)-1-(2,3-dihydrobenzo[b][1,4]dioxin-6-yl)-1-3-hydroxy-(pyrrolidin-1-yl)propan-2-yl)-1-(4,5,6,7-tetrahydrobenzo[d]thiazol-2-yl)pyrrolidine-3-carboxamide] | F (1-49% (or less than 50%)) | 
O=C(N[C@H](CN1CCCC1)[C@H](O)c1ccc2c(c1)OCCO2)[C@H]1CCN(c2nc3c(s2)CCCC3)C1 [Compound 36G, (S)-N-((1R,2R)-1-(2,3-dihydrobenzo[b][1,4]dioxin-6-yl)-1-hydroxy-3-(pyrrolidin-1-yl)propan-2-yl)-1-(4,5,6,7-tetrahydrobenzo[d]thiazol-2-yl)pyrrolidine-3-carboxamide] | NA (not active—a negative value was generated for % inhibition) | 
O=C(N[C@H](CN1CCCCC1)[C@H](O)c1ccc2c(c1)OCCO2)[C@@H]1CCN(c2ccc(Cl)cc2)C1 [Compound 43, (R)-1-(4-chlorophenyl)-N-((1R,2R)-1-(2,3-dihydrobenzo[b][1,4]dioxin-6-yl)-1-hydroxy-3-(piperidin-1-yl)propan-2-yl)pyrrolidine-3-carboxamide] | F (1-49% (or less than 50%)) | 
O=C(N[C@H](CN1CCCCC1)[C@H](O)c1ccc2c(c1)OCCO2)C1CCN(c2ccc(Cl)cc2)C1 (stereo partly drawn) [Compound 43D, 1-(4-chlorophenyl)-N-((1R,2R)-1-(2,3-dihydrobenzo[b][1,4]dioxin-6-yl)-1-hydroxy-3-(piperidin-1-yl)propan-2-yl)pyrrolidine-3-carboxamide] | F (1-49% (or less than 50%)) | 
O=C(N[C@H](CN1CCCCC1)[C@H](O)c1ccc2c(c1)OCCO2)[C@H]1CCN(c2ccc(Cl)cc2)C1 [Compound 43E, (S)-1-(4-chlorophenyl)-N-((1R,2R)-1-(2,3-dihydrobenzo[b][1,4]dioxin-6-yl)-1-hydroxy-3-(piperidin-1-yl)propan-2-yl)pyrrolidine-3-carboxamide] | F (1-49% (or less than 50%)) | 
O=C(N[C@H](CN1CCCCC1)[C@H](O)c1cc(F)c2c(c1)OCCO2)[C@@H]1CCN(c2ccc(Cl)cc2)C1 [Compound 44, (R)-1-(4-chlorophenyl)-N-((1R,2R)-1-(8-fluoro-2,3-dihydrobenzo[b][1,4]dioxin-6-yl)-1-hydroxy-3-(piperidin-1-yl)propan-2-yl)pyrrolidine-3-carboxamide] | F (1-49% (or less than 50%)) | 
O=C(N[C@H](CN1CCCCC1)[C@H](O)c1cc(F)c2c(c1)OCCO2)[C@H]1CCN(c2ccc(Cl)cc2)C1 [Compound 44C, (S)-1-(4-chlorophenyl)-N-((1R,2R)-1-(8-fluoro-2,3-dihydrobenzo[b][1,4]dioxin-6-yl)-1-hydroxy-3-(piperidin-1-yl)propan-2-yl)pyrrolidine-3-carboxamide] | NA (not active—a negative value was generated for % inhibition) | 
O=C(N[C@H](CN1CCCC1)[C@H](O)c1ccc(OC2CCOCC2)c(Cl)c1)[C@@H]1CCN(c2ccc(Cl)cc2)C1 [Compound 45, (R)-N-((1R,2R)-1-(3-chloro-4-((tetrahydro-2H-pyran-4-yl)oxy)phenyl)-1-hydroxy-3-(pyrrolidin-1-yl)propan-2-yl)-1-(4-chlorophenyl)pyrrolidine-3-carboxamide] |  | 1 to 30
O=C(N[C@H](CN1CCCC1)[C@H](O)c1ccc(OC2CCOCC2)c(Cl)c1)[C@H]1CCN(c2ccc(Cl)cc2)C1 [Compound 45A, (S)-N-((1R,2R)-1-(3-chloro-4-((tetrahydro-2H-pyran-4-yl)oxy)phenyl)-1-hydroxy-3-(pyrrolidin-1-yl)propan-2-yl)-1-(4-chlorophenyl)pyrrolidine-3-carboxamide] | F (1-49% (or less than 50%)) | 

Reference: patent publication US10239832B2, “N-(1-hydroxy-3-(pyrrolidinyl)propan-2-yl)pyrrolidine-3-carboxamide derivatives as glucosylceramide synthase inhibitors” (BIOMARIN PHARMACEUTICAL INC., priority 2013, dated 2019)
